Assay results taken from publication PMC9705338, “The phycoerythrobilin isomerization activity of MpeV in Synechococcus sp. WH8020 is prevented by the presence of a histidine at position 141 within its phycoerythrin-I β-subunit substrate” (Frontiers in Microbiology, 2022).

Biological target: T1, WHMpeV (MpeV from WH8020) (Synechococcus sp. WH 8020, UniProt Q02178)
T1 construct: His-tagged, in pCDF-Duet, co-expressed in E. coli with RS9916 cpeS, cpeZ, ho1/pebS and a PE beta-subunit
T1 sequence (Q02178 1-301): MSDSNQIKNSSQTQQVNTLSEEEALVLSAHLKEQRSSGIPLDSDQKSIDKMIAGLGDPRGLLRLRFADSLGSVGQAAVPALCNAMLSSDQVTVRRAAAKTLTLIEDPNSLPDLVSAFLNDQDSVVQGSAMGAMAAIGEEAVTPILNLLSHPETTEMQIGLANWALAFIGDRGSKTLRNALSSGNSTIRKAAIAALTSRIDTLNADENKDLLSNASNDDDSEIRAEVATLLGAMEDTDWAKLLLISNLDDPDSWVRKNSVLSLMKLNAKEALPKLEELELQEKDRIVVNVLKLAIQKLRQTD
Assay: co-expression in E. coli; absorbance, zinc fluorescence, LC-MS-MS of the product subunit
Type: cell-based

C=CC1=C(C)C(CC2=NC(=Cc3[nH]c(C=C4NC(=O)C(C)C4=CC)c(C)c3CCC(=O)O)C(CCC(=O)O)=C2C)NC1=O (centres unmarked) [phycoerythrobilin]
co-expression in E. coli; absorbance, zinc fluorescence, LC-MS-MS of the product (bilin acceptor WHCpeB (ligation without isomerization), RSCpeB or WHMpeB (ligation with isomerization), with RSCpeZ and RSCpeS): WHMpeV acts as a PEB lyase-isomerase, doubly ligating PUB on RSCpeB

C=CC1=C(C)[C@@H](CC2=N/C(=C\c3[nH]c(C[C@H]4NC(=O)C(C)=C4C=C)c(C)c3CCC(=O)O)C(CCC(=O)O)=C2C)NC1=O [phycourobilin]
co-expression in E. coli; absorbance, zinc fluorescence, LC-MS-MS of the product (covalent, protein-bound product on RSCpeB, WHMpeB and WHCpeB H141L): WHMpeV is capable of isomerizing activity on both WHMpeB and RSCpeB
